Consider 2 molecules from PMC7414198, “Genomic and enzymatic evidence of acetogenesis by anaerobic methanotrophic archaea” (Nature Communications, 2020).

As a reminder, the Km is the substrate concentration at which the rate is half of its maximum.

Read-outs that look alike come from different tables or passages of the source.

Experiment [1] relates to acetyl-CoA synthetase (Acs) from ANME-2a. The conditions noted are these: acetyl-CoA-forming direction; concentrations of ATP and CoA not given.
Experiment [2] has as its system T1, acetyl-CoA synthetase (Acs) from ANME-2a.
T1 construct: codon-optimised synthetic gene in pET-28a (NdeI/BamHI), E. coli Rosetta(DE3), Ni-NTA purified, 70 kDa
Kind of experiment: DTNB assay of HSCoA release, […] nm. The format is biochemical, ANME-2 cluster archaeon (ANME-2a, uncultured). The conditions noted are these: acetate-forming direction; 2 mM AMP, 2 mM PPi, 1.25 M KCl, 1 mM MgCl2, 20 mM Tris-HCl pH 8.0.

For experiment [3], the system named is T2, ADP-forming acetate-CoA ligase (Acd) from ANME-2a.
T2 construct: alpha (55 kDa) and beta (25 kDa) subunits, codon-optimised synthetic genes in pET-28a (NdeI/BamHI and BamHI/SalI, RBS before beta), E. coli BL21(DE3)-groEL, Ni-NTA purified
Description: DTNB assay of HSCoA release, […] nm. Type of experiment: biochemical, ANME-2 cluster archaeon (ANME-2a, uncultured). The conditions noted are these: acetate-forming direction; 2 mM ADP, 40 mM K3PO4, 1 mM MgCl2, 20 mM Tris-HCl pH 8.0.

Regarding `CC(=O)O` [acetate], the Michaelis-Menten constant (Km) in experiment [1] is 490 µM.
`CC(=O)SCCNC(=O)CCNC(=O)[C@H](O)C(C)(C)COP(=O)(O)OP(=O)(O)OC[C@H]1O[C@@H](n2cnc3c(N)ncnc32)[C@H](O)[C@@H]1OP(=O)(O)O` [acetyl-CoA]: the Michaelis-Menten constant (Km) was 8.5 µM in experiment [2] and 31.3 µM in experiment [3].
